This is an account of results in publication PMC10674987, “Sweet Cherry Extract as Permeation Enhancer of Tyrosine Kinase Inhibitors: A Promising Prospective for Future Oral Anticancer Therapies” (Pharmaceuticals, 2023).

Series [1] can be described thus: Bidirectional permeability in Caco-2 cells in absence and presence of SCE. It counts as in vitro ADME, human. Particulars: human, 10 µM compound; for Papp A→B at 2 h, 10 µM: apical to basolateral; for Papp B→A at 2 h, 10 µM: basolateral to apical; for efflux ratio at 2 h, 10 µM: read-out: Efflux ratio (ER) (Papp B-A/Papp A-B). Here is the method: (§1) Caco-2 cells were seeded at a density of 2 × 10^4 on Transwell supports (0.4 µm pore polycarbonate membrane, 6.5 mm) and incubated overnight in a controlled atmosphere of 37 °C and 5% of CO2. The following day, the medium was changed to remove floating cells and fresh pre-warmed DMEM 20% was added (300 µL in the apical compartment and 1200 µL in the basal one). Cells were cultured for approximately 18–21 days in order to ensure that the cellular monolayers differentiated and many transport proteins and brush border hydrolases were expressed. Media were changed every 2–3 days.
(§2) For permeability studies, stock solutions of compounds were prepared by solubilizing 1.0 mg of accurately weighed powder with dimethyl sulfoxide (DMSO) and conserved at −20 °C. Immediately prior to the experiments, working solutions (WS) were prepared by diluting the stock solutions with pre-warmed HBSS to the final concentration of 10 µM. The final concentration of DMSO used never exceeded 0.1% v/v. The assays were performed in both the absorptive (from apical-to-basolateral compartment (A-B)) and the secretory direction (from basolateral-to-apical compartment (B-A)), both in the absence (Free) and presence of sweet cherry extract (+SCE [1 mg/mL]) diluted in HBSS. The final volumes used for the experiment were 300 µL in the apical compartment and 1200 µL in the basolateral one. Plates were incubated at 37 °C and maintained under gentle shaking (500 rpm) to reduce the effect of the unstirred water layer. At selected time points (T0–0.25–0.5–1–2 h-TEND for the A-B studies; T0–2 h–TEND for the B-A studies), samples (200 µL) were collected from the receiving compartments (from the basolateral compartment for the A-B assay; from the apical one for the B-A study) and replaced with the same volume of HBSS. The HPLC-UV/MS method was developed to quantify the amount of drug transferred across the cellular monolayer, and permeability (Papp, 10^−6 cm/s) and efflux ratio (ER) were calculated according to the following equations:Papp = (dQ/dt) × 1/(A × C0)(5) where dQ/dt is the steady-state flux (µmol s^−1), A is the area of the filter (cm^2), and C0 is the initial concentration in the donor compartment (µM). ER = (Papp B-A)/(Papp A-B)(6)
(§3) Chromatographic analyses were carried out using an Agilent 1260 Infinity HPLC-DAD system connected to an Agilent MSD 6130 system (Agilent Technologies, Palo Alto, CA, USA). At room temperature, a Kinetex C18-100 Å column (150 mm 4.6 mm, purchased from Phenomenex, Torrance, CA, USA) with a 5 µm particle size and gradient elution with a binary solution (eluent A: H2O, eluent B: ACN, both acidified with 0.1% v/v formic acid) was for the chromatographic separation. Analyses started with 5% B (from t = 0 to t = 1 min), then increased to 95% (from t = 1 to t = 10 min), then maintained at 95% (from t = 10 to t = 15 min), and finally returned to […] in 1.0 min. The volume injected was 10 µL, and the flow rate 600 µL/min. UV detection was monitored at 254 nm, and spectra were collected in both the positive and negative modes within the scan range of m/z 100–1500.
For orientation: Caco-2 monolayers are a common model of the intestinal barrier.

Another series has as its system Caco-2 monolayer. The description is as above. It counts as in vitro ADME, human. Here is the method: as §1, §2, §3
For series [2] the following is noted: previously published; cited from earlier work.
For series [3] the following is noted: previously published; cited from earlier work. This is another data set of the same source.
The conditions of series [4]: human liver microsomes; previously published; cited from earlier work. A general note: Liver microsomes are a subcellular fraction often used to study metabolism.

Like-named read-outs stand apart in the source and are kept apart here.

Broadly, the Papp A→B is the apparent permeability from the apical to the basolateral side of a cell layer. Broadly, the Papp B→A is how fast a substance crosses the layer from the basolateral side. In general, melting point refers to the temperature of the solid-liquid transition. `Oc1ccc(Cl)c(Nc2nc(SCCN3CCOCC3)nc3c2cnn3/C=C/c2ccccc2)c1` [Cpd 7] displayed a melting point of 189 to 191 °C. Moreover, in series [1] (Caco-2, +SCE [1 mg/mL]), the Papp A→B at 2 h, 10 µM was determined as 1.17 ± 0.12 ×10⁻⁶ cm/s; the Papp B→A at 2 h, 10 µM stood at 0.457 ± 0.108 ×10⁻⁶ cm/s; the efflux ratio at 2 h, 10 µM is 0.387 ± 0.052. In series [1] (Caco-2, Free), the Papp A→B at 2 h, 10 µM is < 0.5 ×10⁻⁶ cm/s; the Papp B→A at 2 h, 10 µM was found to be 0.229 ± 0.023 ×10⁻⁶ cm/s; the efflux ratio at 2 h, 10 µM came out at 0.517 ± 0.014. Also, in the series on Caco-2 monolayer (+SCE 1 mg/mL vs Free), the “Change of Papp A-B in presence of SCE vs Free” value is given as “almost doubled”, the “Change of Papp B-A in presence of SCE vs Free” value is on record as “only a slight increase” and the “Change of efflux ratio in presence of SCE vs Free” value is reported as “only a slight decrease”. Besides, the “Efflux ratio (ER) (Papp B-A/Papp A-B)” value in the series with Caco-2 monolayer (Free, 10 µM compound) was 0.481 ± 0.049. Further, in series [2], the “Water Solubility” value is listed as 0.036 µg/mL. In series [3], the “PAMPA Papp” value was 5.5 10^−6 cm/s and the “PAMPA membrane retention (MR %)” value is 5.4%. Also, the “Metabolic Stability” value in series [4] is reported as 97.6%.
